Square brackets hold non-standard residues; d marks the D form. Peptide text beside a SMILES is read from it. Phe(ol) = N[C@H](CO)Cc1ccccc1; Leu(ol) = CC(C)C[C@H](N)CO; dIva = CC[C@@](C)(N)C(=O)O; Aib = CC(C)(N)C(=O)O
Key:
PfMDR1 cKD parasite line = assay: MDR1 compound susceptibility assay (Renilla luciferase); on pfMDR1 cKD Sensitivity: key: -: A '–' indicates a negative finding; a single '+' indicates a positive finding; a double '++' indicates a strong positive finding; type: cell-based, P. falciparum; details: for shift in sensitivity upon PfMDR1 knockdown: with (0.5 μM) vs without aTc, 72 h, luminescence; for pfMDR1 cKD Sensitivity: Figure 7A summary / graphical abstract
From the text: A conditional knockdown parasite line was generated for the P. falciparum multi-drug resistance 1 (MDR1; PF3D7_0523000) following previously described procedures.[84]^,[85] The native PfMDR1 locus was engineered using CRISPR/SpCas9 to afford transcriptional fusion of 10 tandem TetR-DOZI binding aptamers in the 3′UTR for anhydrotetracycline (aTc)-dependent regulation of PfMDR1 expression.
As a control cell line, a parasite line expressing an aptamer-regulatable fluorescent protein integrated in the cg6 locus[84] was assayed in parallel. Synchronous ring-stage parasites in the presence (0.5 μM) and absence of aTc were dispensed into 384-well polystyrene microplates (Corning®), and compounds added using the Janus® platform (PerkinElmer). DMSO- and DHA (0.5 μM) served as normalization controls for maximal and minimum signal. Luminescence was measured after 72 h and IC50 values were obtained from normalized dose-response curves using GraphPad Prism Version 8.

red blood cell (RBC) = assay: Percent hemolysis determination; type: cell-based, human; details: for hemolysis at 25 μM: RBCs in PBS, 1% hematocrit, 1 h, 37°C, absorbance 550 nm, 0.01% saponin control, biological triplicate; for Hemolytic Potential: Figure 7A summary; on Hemolytic Potential: key: -: A '–' indicates a negative finding; a single '+' indicates a positive finding; a double '++' indicates a strong positive finding
Method: Hemolysis assay performed as outlined in Duvall et al. with some modifications.[63] Whole blood was first washed and resuspended in PBS to isolate RBCs. Compound was then added in serial dilutions to PBS with 1% hematocrit, with vehicle or 0.01% saponin used as controls. Plates were incubated for 1 h at 37°C then centrifuged for 10 min at 900 x g. Supernatant was then transferred to a clear plate and absorbance was read at 550 nm. Extended incubation with compound (up to 3 days) was performed during assay optimization, with no changes noted in percent hemolysis.

[1] = test system: digestive vacuole of functionally isolated 3D7 trophozoites; assay: FITC-dextran measurements of DV pH and membrane integrity; on DV Alkylization: key: -: A '–' indicates a negative finding; a single '+' indicates a positive finding; a double '++' indicates a strong positive finding; type: cell-based, P. falciparum; details: for localization of membrane impermeable dye FITC-dextran (DV membrane leakage): microscopic analysis after 2 h; for DV Alkylization: Figure 7A summary
Method: Preloading of 3D7 parasites with FITC-dextran was done as outlined in Saliba et al.[68] In summary, 2.25 mL of pre-warmed lysis buffer (5 mM HEPES, 11 mM glucose, 2 mM MgCl2, 2 mM ATP, and 110 μM FITC-dextran, pH 7.4) was added to 1 mL of packed RBCs and incubated at 30°C for 10 min. After, 2.25 mL of resealing buffer (280 mM NaCl, 40 mM KCl, 11 mM glucose, and 1 mM HEPES, pH 7.4) was added and cells were pelleted at 1,200 x g for 5 min then washed 3 x in RPMI. FITC-dextran loaded RBCs were then resuspended with 1 mL of synchronous trophozoite stage parasites (10–20%) parasitemia, at 4% hematocrit. Cultures were maintained in 50 mL for a minimum of 2 life cycles, until parasitemia reached >15%.
For assay use, trophozoite stage parasites were functionally isolated as described by van Schalkwyk et al. and Kirk et al. with some modifications.[69]^,[70] Parasites were resuspended in warm media with 0.05% saponin then centrifuged immediately at 2,060 x g for 10 min. Cells were washed in RPMI media 3 x then resuspended in HEPES buffered saline (100 mM KCl, 30 mM NaCl, 2 mM MgCl2, and 5 mM HEPES, pH 7.3) at 5 x 10^6 cells/mL. […] Samples were collected at 0.5, 1, and 2 h for flow cytometry using a CytoFLEX S (Beckman Coulter, Brea, CA), excitation 488 nm, emissions 530 and 585 nm. Gating was performed in FlowJo Version 10 using FITC-dextran loaded and unloaded controls. The ratio (Rgy) of the fluorescent intensity values was then graphed using Graph Pad Prism Version 9. For microscopic analysis, samples were collected after 2 h of treatment and imaged on a Leica TCS SP5 II confocal microscope (Leica Microsystems, Wetzlar, DE.) at excitation 488, emission 520 nm with a 30 nm bandpass filter, then processed with LAS-X software. Significance determined using a one-way ANOVA multiple comparisons test in GraphPad Prism Version 9.0.

HepG2 cells = assay: HepG2 cytotoxicity assay (MTS); type: cell-based, H. sapiens; details: for EC50: 48 h, MTS, absorbance 490 nm, highest concentration 25 μM, mean ± SEM, biological triplicate; for cytotoxicity in HepG2: highest concentration tested 25 μM
Method: HepG2 cells are grown at 37°C in DMEM with 10% FBS, 1% Antibiotic/Antimycotic, 0.3% NaHCO3, 5 mM HEPES pH 7.4, and 2 mM L-glutamine as needed in an atmosphere containing 5% CO2.
The cytotoxicity assay was performed as reported previously.[35] HepG2 cells were seeded at ∼2,250 cells per well 24 h prior to compound addition. Cells were then incubated for an additional 48 h prior to the addition of MTS and absorbance reading at 490 nm on Synergy Neo2 multimode reader (BioTek, Winsooki, VT). Cytotoxicity EC50 values were determined using CDD Vault (https://www.collaborativedrug.com/).

[2] = test system: P. falciparum asexual blood stage parasites grown in 10% human serum; assay: Antiplasmodial activity with serum media; type: cell-based; details: RPMI with 10% human serum, maintained minimum 2 weeks; mean ± SEM from 3 biological replicates
Method: Asexual blood stage parasites grown in the Chakrabarti laboratory were cultured based on a protocol by Trager and Jensen[57] with some modifications.[35] […] For comparison screening using serum vs Albumax II, culture media was changed from RPMI with 0.5% Albumax II to RPMI with 10% human serum and maintained for a minimum of 2 weeks prior to assay use.
Inhibitor EC50 determination in 3D7 and Dd2 was performed as discussed in,[35] based on established protocols.[60] Assays utilized asynchronous culture at 1% parasitemia, 1% hematocrit. Culture was incubated with compound dilutions for 72 h followed by freezing at −80°C to promote lysis, then thawing and incubation for 45 min–1 h with 1× SYBR Green I in a lysis buffer (20 mM Tris-HCL, 0.08% saponin, 5 mM EDTA, and 0.8% Triton X-100). Fluorescence was read 485 nm excitation, 530 nm emission on a Synergy Neo2 multimode reader (BioTek Winsooki, VT) and EC50 curves were generated using CDD Vault (https://www.collaborativedrug.com/).

[3] = test system: P. berghei liver stage parasites in HepG2 cells; assay: High content imaging P. berghei liver stage assay (luciferase 48 HPI, MSP1/AMA1 72 HPI, HepG2 area); type: cell-based; details: for Liver stage inhibition: Figure 7A summary
Method: HepG2 cells infected with luciferase-expressing P. berghei sporozoites were seeded onto compound-loaded 384-well plates 2 hours after sporozoite addition. A live luciferase readout at 48 HPI[62] quantifies compound activity against parasite biomass, while HCI of MSP1 and AMA1 expression at 72 HPI quantifies effects on liver stage maturation and hepatic merozoite formation. Compound effects on hepatocytes are assessed based on HepG2 area occupied in the 72 HPI HCI assay. All data are normalized to in-plate DMSO controls.

[4] = 5 x EC50, isolated trophozoites

| Compound | shift in sensitivity upon PfMDR1 knockdown (PfMDR1 cKD parasite line) | hemolysis at 25 μM (red blood cell (RBC)) | pH dependent fluorescence ratio (FI585/FI530), DV pH, after 0.5 h [1, 4] | localization of membrane impermeable dye FITC-dextran (DV membrane leakage) ([1]; 5 x EC50) | EC50 (HepG2 cells) | cytotoxicity in HepG2 (HepG2 cells) | EC50 [2] | pfMDR1 cKD Sensitivity (PfMDR1 cKD parasite line) | Hemolytic Potential (red blood cell (RBC)) | pH dependent fluorescence ratio (FI585/FI530), DV pH, 0.5, 1 or 2 h [1, 4] | DV Alkylization [1] | Liver stage inhibition [3] | pH dependent fluorescence ratio (FI585/FI530), DV pH, after 1 h [1, 4] | pH dependent fluorescence ratio (FI585/FI530), DV pH, after 2 h [1, 4] | luciferase inhibition at 48 HPI (liver stage HCI) ([3]; tested at 5 and 0.5 μM) |
| --- | --- | --- | --- | --- | --- | --- | --- | --- | --- | --- | --- | --- | --- | --- | --- |
| CC(=O)NC(C)(C)C(=O)N1CCC[C@H]1C(=O)NC(C)(C)C(=O)N[C@@H](C)C(=O)NC(C)(C)C(=O)N[C@@H](C)C(=O)N[C@@H](CCC(N)=O)C(=O)NC(C)(C)C(=O)N[C@H](C(=O)NC(C)(C)C(=O)NCC(=O)N[C@@H](CC(C)C)C(=O)NC(C)(C)C(=O)N1CCC[C@H]1C(=O)N[C@H](C(=O)NC(C)(C)C(=O)NC(C)(C)C(=O)N[C@@H](CCC(=O)O)C(=O)N[C@@H](CCC(N)=O)C(=O)N[C@H](CO)Cc1ccccc1)C(C)C)C(C)C [Alamethicin, reference compound] (Ac-[Aib]P[Aib]A[Aib]AQ[Aib]V[Aib]GL[Aib]PV[Aib][Aib]EQ[Phe(ol)]; N-terminus assumed) | no differential sensitivity | 73% | Rapid alkalization | no longer showed full colocalization of the dye within the DV | 6.6 ± 0.1 µM | Minor cytotoxicity |  |  |  |  |  |  |  |  |  |
| CC[C@H](C)[C@H](NC(=O)[C@H](C)NC(=O)[C@@H]1CCCN1C(=O)C(C)(C)NC(=O)[C@H](CC(C)C)NC(=O)[C@H](CCC(N)=O)NC(=O)[C@@](C)(CC)NC(C)=O)C(=O)NC(C)(C)C(=O)N1CCC[C@H]1C(=O)N[C@](C)(CC)C(=O)N[C@@H](CC(C)C)C(=O)NC(C)(C)C(=O)N1CCC[C@H]1C(=O)N[C@H](CO)CC(C)C [HZ NPDG-H, harzianin NPDG H] (Ac-[dIva]QL[Aib]PAI[Aib]P[dIva]L[Aib]P[Leu(ol)]) | ~6 fold |  |  | not seen | > 25 µM | no cytotoxicity | 0.69 ± 0.09 µM | + | - | No significant (p > 0.05) change | - | Maturation only |  |  |  |
| CC[C@H](C)[C@H](NC(=O)[C@H](CC(C)C)NC(=O)[C@H](CCC(N)=O)NC(=O)[C@@](C)(CC)NC(C)=O)C(=O)NC(C)(C)C(=O)N1CCC[C@H]1C(=O)N[C@](C)(CC)C(=O)N[C@@H](CC(C)C)C(=O)NC(C)(C)C(=O)N1CCC[C@H]1C(=O)N[C@H](CO)CC(C)C [HZ NPDG-I, harzianin NPDG I] (Ac-[dIva]QLI[Aib]P[dIva]L[Aib]P[Leu(ol)]) | 43 fold |  |  | no longer showed full colocalization of the dye within the DV | > 25 µM | no cytotoxicity | 0.26 ± 0.03 µM | ++ | - |  | + | Maturation only | moderate increase | significant (p = 0.0015) increase |  |
| CC[C@@](C)(NC(=O)C(C)(C)NC(=O)[C@H](CC(C)C)NC(=O)[C@@H]1CCCN1C(=O)C(C)(C)NC(=O)[C@H](CC(C)C)NC(=O)CNC(=O)C(C)(C)NC(=O)[C@@H](NC(=O)C(C)(C)NC(=O)[C@H](CCC(N)=O)NC(=O)C(C)(C)NC(=O)C(C)(C)NC(=O)[C@H](C)NC(=O)CNC(=O)C(C)(C)NC(C)=O)C(C)C)C(=O)N[C@@H](CCC(N)=O)C(=O)N[C@H](CO)CC(C)C [TC HA-II, trichorzin HA II] (Ac-[Aib]GA[Aib][Aib]Q[Aib]V[Aib]GL[Aib]PL[Aib][dIva]Q[Leu(ol)]) | no differential sensitivity | 53% |  | no longer showed full colocalization of the dye within the DV | 13 ± 2 µM | Minor cytotoxicity | 2.2 ± 0.27 µM |  | + |  | ++ | Maturation and replication |  |  | showed luciferase inhibition |

Source: article PMC10923054, “Antiplasmodial peptaibols act through membrane directed mechanisms” (Cell Chemical Biology, 2024)
